From PMC8667902 (Journal of Enzyme Inhibition and Medicinal Chemistry, 2021)
Where two headings read alike, the source gives them in different places.

Assays:
ratAChE = target: T1, ratAChE (Rattus norvegicus, UniProt P37136); assay: Ellman's method, AChE from rat cortex homogenate; type: biochemical; details: for SI = Selectivity index = IC50 (BuChE)/IC50 (AChE): ratBuChE over rat AChE
T1 sequence (P37136 32-614): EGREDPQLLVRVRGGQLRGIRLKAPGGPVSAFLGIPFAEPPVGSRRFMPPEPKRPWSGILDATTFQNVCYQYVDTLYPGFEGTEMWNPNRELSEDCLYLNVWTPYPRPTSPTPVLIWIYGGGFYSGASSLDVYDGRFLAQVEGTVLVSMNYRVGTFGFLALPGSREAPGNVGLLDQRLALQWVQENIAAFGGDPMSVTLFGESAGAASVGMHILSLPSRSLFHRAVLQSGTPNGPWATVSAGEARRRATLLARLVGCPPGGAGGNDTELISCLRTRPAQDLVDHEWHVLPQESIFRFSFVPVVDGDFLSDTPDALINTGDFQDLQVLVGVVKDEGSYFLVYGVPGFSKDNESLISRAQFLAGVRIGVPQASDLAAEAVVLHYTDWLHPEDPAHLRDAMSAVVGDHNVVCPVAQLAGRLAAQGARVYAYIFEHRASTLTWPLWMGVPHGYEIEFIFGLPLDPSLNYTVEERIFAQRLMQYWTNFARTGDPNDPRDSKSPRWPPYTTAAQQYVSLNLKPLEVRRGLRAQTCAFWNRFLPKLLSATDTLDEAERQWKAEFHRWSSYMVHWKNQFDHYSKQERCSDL

eeAChE = eeAChE (Electrophorus electricus, UniProt O42275); assay: Ellman's method, electric eel AChE; type: biochemical
Chain of eeAChE (O42275 24-633): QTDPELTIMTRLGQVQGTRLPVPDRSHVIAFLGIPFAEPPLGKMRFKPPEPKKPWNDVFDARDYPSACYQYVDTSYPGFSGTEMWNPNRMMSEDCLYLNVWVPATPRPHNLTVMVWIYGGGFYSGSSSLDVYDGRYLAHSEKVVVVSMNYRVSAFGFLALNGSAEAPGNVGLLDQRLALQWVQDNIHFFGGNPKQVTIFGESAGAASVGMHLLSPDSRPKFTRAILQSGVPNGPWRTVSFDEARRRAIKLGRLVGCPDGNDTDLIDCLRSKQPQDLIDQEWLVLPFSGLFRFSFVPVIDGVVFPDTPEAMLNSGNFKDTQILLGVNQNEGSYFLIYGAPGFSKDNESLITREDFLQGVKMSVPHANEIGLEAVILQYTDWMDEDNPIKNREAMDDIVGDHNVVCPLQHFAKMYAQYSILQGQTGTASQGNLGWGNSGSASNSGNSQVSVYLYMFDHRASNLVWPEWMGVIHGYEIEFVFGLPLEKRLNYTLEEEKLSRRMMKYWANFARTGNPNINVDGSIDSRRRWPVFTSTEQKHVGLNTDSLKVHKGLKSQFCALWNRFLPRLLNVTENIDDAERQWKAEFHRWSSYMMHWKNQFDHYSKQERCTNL

ratBuChE = ratBuChE (Rattus norvegicus, UniProt Q9JKC1); assay: Ellman's method, BuChE from rat serum; type: biochemical
Chain of ratBuChE (Q9JKC1 24-597): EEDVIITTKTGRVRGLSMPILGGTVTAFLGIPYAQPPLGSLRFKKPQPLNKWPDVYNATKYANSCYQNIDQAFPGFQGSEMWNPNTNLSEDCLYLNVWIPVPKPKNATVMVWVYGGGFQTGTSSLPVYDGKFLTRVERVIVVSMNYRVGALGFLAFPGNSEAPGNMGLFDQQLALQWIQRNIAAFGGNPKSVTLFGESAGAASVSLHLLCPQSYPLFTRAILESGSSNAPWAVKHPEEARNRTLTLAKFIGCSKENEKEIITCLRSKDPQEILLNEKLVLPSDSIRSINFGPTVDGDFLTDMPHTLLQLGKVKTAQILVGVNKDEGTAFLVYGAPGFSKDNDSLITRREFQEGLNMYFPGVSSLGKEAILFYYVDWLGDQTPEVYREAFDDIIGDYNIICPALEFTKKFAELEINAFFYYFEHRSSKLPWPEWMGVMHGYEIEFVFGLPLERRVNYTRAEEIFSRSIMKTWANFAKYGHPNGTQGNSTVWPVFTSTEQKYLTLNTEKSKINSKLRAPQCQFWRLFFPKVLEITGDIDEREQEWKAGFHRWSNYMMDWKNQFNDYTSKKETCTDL

Aβ1–42 fibrils [1] = target: T2, Aβ1–42 fibrils (Homo sapiens, UniProt P05067); assay: Disaggregation of self-induced Aβ1–42 aggregation; type: biochemical; details: 25 μM; ThT assay
T2 sequence (P05067 672-713): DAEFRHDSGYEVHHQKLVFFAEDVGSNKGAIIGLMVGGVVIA

Aβ1–42 fibrils [2] = target: T2, Aβ1–42 fibrils; assay: Disaggregation of Cu2+-induced Aβ1–42 aggregation; type: biochemical
[3] = Oxygen Radicals Absorbance Capacity by Fluorescence; details: for ORAC: Trolox as reference; for ORAC-FL value: Trolox equivalents
huMAO-A = target: T3, huMAO-A (Homo sapiens, UniProt P21397); assay: huMAO-A inhibition, fluorescence method; type: biochemical; details: for inhibition at 10 µM: read-out: MAO-A percent inhibition rate
T3 sequence (P21397 1-527): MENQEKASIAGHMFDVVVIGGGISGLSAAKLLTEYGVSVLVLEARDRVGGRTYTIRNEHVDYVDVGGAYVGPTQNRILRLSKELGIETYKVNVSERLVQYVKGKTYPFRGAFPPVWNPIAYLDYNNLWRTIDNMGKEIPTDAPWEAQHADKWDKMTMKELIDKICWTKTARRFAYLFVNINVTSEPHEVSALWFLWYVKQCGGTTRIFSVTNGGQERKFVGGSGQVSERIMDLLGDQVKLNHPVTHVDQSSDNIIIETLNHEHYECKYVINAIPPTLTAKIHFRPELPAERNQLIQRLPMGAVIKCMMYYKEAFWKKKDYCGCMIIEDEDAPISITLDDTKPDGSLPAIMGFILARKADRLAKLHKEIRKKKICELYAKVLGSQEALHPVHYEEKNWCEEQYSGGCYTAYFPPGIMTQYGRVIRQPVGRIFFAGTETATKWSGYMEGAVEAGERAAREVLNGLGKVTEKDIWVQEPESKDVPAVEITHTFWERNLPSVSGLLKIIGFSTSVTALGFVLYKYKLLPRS

Aβ1–42 [4] = target: T4, Aβ1–42 (Homo sapiens, UniProt P05067); assay: Inhibition of Cu2+-induced Aβ1–42 aggregation; type: biochemical; details: read-out: Inhibition of Aβ1–42 aggregation (%) Cu^2+-induced
T4 sequence (P05067 672-713): as the sequence (P05067 672-713) above

huMAO-B = target: T5, huMAO-B (Homo sapiens, UniProt P27338); assay: biochemical; details: for inhibition at 10 µM: read-out: MAO-B percent inhibition rate
T5 sequence (P27338 1-520): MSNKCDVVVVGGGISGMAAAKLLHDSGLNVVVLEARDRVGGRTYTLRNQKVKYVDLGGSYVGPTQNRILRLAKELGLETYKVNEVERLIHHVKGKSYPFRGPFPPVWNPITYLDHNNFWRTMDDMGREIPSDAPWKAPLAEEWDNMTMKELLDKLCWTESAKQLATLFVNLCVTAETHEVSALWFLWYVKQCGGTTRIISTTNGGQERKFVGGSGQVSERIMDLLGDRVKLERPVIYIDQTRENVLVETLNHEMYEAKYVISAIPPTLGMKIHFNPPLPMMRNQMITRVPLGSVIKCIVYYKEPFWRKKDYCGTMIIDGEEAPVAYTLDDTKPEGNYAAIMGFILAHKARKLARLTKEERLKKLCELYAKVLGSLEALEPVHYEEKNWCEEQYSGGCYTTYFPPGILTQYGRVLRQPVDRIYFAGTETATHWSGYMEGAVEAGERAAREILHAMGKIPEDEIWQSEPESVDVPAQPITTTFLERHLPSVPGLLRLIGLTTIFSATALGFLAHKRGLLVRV

Aβ1–42 [5] = target: T4, Aβ1–42; assay: Inhibition of self-induced Aβ1–42 aggregation; type: biochemical; details: ThT assay; for inhibition at 25 µM: read-out: Inhibition of Aβ1–42 aggregation (%) Self-induced, 25 μM

SMILES | IC50 (ratAChE) [µM] | SI = Selectivity index = IC50 (BuChE)/IC50 (AChE) (ratAChE) | IC50 (eeAChE) [µM] | IC50 (ratBuChE) [µM] | Disaggregation of Aβ1–42 aggregation (%) Self-induced (Aβ1–42 fibrils [1]) [%] | Disaggregation of Aβ1–42 aggregation (%) Cu^2+-induced (Aβ1–42 fibrils [2]; 25 μM, ThT assay) [%] | ORAC [3] | IC50 (huMAO-A) [µM] | inhibition at 25 µM (Aβ1–42 [4]) [%] | IC50 (huMAO-B) [µM] | SI = selectivity index = IC50 (hMAO-A)/IC50 (hMAO-B) (huMAO-B) | inhibition at 25 µM (Aβ1–42 [5]) [%] | inhibition at 10 µM (huMAO-A) [%] | inhibition at 10 µM (huMAO-B) [%] | Inhibition of Aβ1–42 aggregation (%) Self-induced (Aβ1–42 [5]; 25 μM) | ORAC-FL value [3] [eq] | Disaggregation of Aβ1–42 aggregation (%) Cu^2+-induced (Aβ1–42 fibrils [2]) [%]
CCN(CCCCCCOc1ccc(/C=C/C(=O)c2c(O)cc(OC)c(OC)c2OC)cc1)Cc1ccccc1OC [Compound 9f, (E)-3-(4-(6-(ethyl(2-methoxybenzyl)amino)hexyloxy)phenyl)-1-(6-hydroxy-2,3,4-trimethoxyphenyl)prop-2-en-1-one] | 0.61 ± 0.01 | >819.7 | 1.78 ± 0.02 | > 500 | 62.8 ± 0.03 | 81.4 ± 0.68 | 0.96 ± 0.01 μM of Trolox equivalent/μM of compounds | 43.6 ± 0.68 | 75 ± 0.02 | 7.2 ± 0.03 | 6.1 | 69 ± 0.01 | – | – | – | – | –
COc1ccccc1CN(C)CCCCCCOc1ccc(/C=C/C(=O)c2c(O)cc(OC)c(OC)c2OC)cc1 [Compound 9e, (E)-1-(6-hydroxy-2,3,4-trimethoxyphenyl)-3-(4-(6-((2-methoxybenzyl)(methyl)amino)hexyloxy)phenyl)prop-2-en-1-one] | 1.68 ± 0.01 | >297.6 | 1 ± 0.03 | > 500 | 58.2 ± 0.01 | 77.0 ± 0.57 | 0.99 ± 0.02 μM of Trolox equivalent/μM of compounds | 37.8 ± 0.57 | 76.2 ± 0.04 | 2.5 ± 0.01 | 15.1 | 65.3 ± 0.02 | – | – | – | – | –
COc1ccccc1CN(C)CCCCCCOc1ccc(/C=C/C(=O)c2c(O)cc(OC)c(O)c2OC)cc1 [Compound 17e, (E)-1-(3,6-dihydroxy-2,4-dimethoxyphenyl)-3-(4-((6-((2-methoxybenzyl)(methyl)amino)hexyl)oxy)phenyl)prop-2-en-1-one] | 1.4 ± 0.02 | >357.1 | 2.16 ± 0.01 | > 500 | 74.8 ± 0.31 | 83.7 ± 0.03 | 3.4 ± 0.02 μM of Trolox equivalent/μM of compounds | – | 96.2 ± 0.02 | 12.8 ± 0.31 | – | 65.7 ± 0.03 | 17.9 | – | – | – | –
CCN(CCCCOc1ccc(/C=C/C(=O)c2c(O)cc(OC)c(O)c2OC)cc1)Cc1ccccc1OC [Compound 17d, (E)-1-(3,6-dihydroxy-2,4-dimethoxyphenyl)-3-(4-(4-(ethyl(2-methoxybenzyl)amino)butoxy)phenyl)prop-2-en-1-one] | 0.58 ± 0.01 | 700 | 3.68 ± 0.02 | 406 ± 15.2 | 45.7 ± 0.16 | 79.8 ± 0.03 | 3.1 ± 0.01 μM of Trolox equivalent/μM of compounds | – | 91.7 ± 0.02 | 15.1 ± 0.16 | – | 73.8 ± 0.01 | 16.7 | – | – | – | –
CCN(CCCOc1ccc(/C=C/C(=O)c2c(O)cc(OC)c(O)c2OC)cc1)Cc1ccccc1OC [Compound 17b, (E)-1-(3,6-dihydroxy-2,4-dimethoxyphenyl)-3-(4-(3-(ethyl(2-methoxybenzyl)amino)propoxy)phenyl)prop-2-en-1-one] | 0.73 ± 0.01 | 212.3 | 3.16 ± 0.02 | 155 ± 5.8 | 60.2 ± 0.03 | 82.8 ± 0.03 | 2.9 ± 0.02 μM of Trolox equivalent/μM of compounds | – | 90.2 ± 0.02 | – | – | 82.1 ± 0.01 | 14.6 | 2.1 | – | – | –
COc1ccccc1CN(C)CCCCOc1ccc(/C=C/C(=O)c2c(O)cc(OC)c(OC)c2OC)cc1 [Compound 9c, (E)-1-(6-hydroxy-2,3,4-trimethoxyphenyl)-3-(4-(4-((2-methoxybenzyl)(methyl)amino)butoxy)phenyl)prop-2-en-1-one] | 1.77 ± 0.01 | >282.5 | 1.5 ± 0.02 | > 500 | 45.7 ± 0.12 | 66.6 ± 0.36 | 0.97 ± 0.01 μM of Trolox equivalent/μM of compounds | 35.7 ± 0.36 | 74.1 ± 0.02 | 23.6 ± 0.12 | 1.5 | 65 ± 0.01 | – | – | – | – | –
COc1ccccc1CN(C)CCCCOc1ccc(/C=C/C(=O)c2c(O)cc(OC)c(O)c2OC)cc1 [Compound 17c, (E)-1-(3,6-dihydroxy-2,4-dimethoxyphenyl)-3-(4-(4-((2-methoxybenzyl)(methyl)amino)butoxy)phenyl)prop-2-en-1-one] | 1.63 ± 0.02 | >306.7 | 3.74 ± 0.03 | > 500 | 75.9 ± 0.03 | 79.1 ± 0.15 | 2.8 ± 0.01 μM of Trolox equivalent/μM of compounds | 18.3 ± 0.15 | 92.5 ± 0.03 | – | – | 68.4 ± 0.02 | – | 11 | – | – | –
COc1cc2c(cc1OC)C(=O)C(CC1CCN(Cc3ccccc3)CC1)C2 (centres unmarked) [Donepezil, reference compound] | – | – | – | – | – | – | – | – | – | – | – | < 5 | – | – | n.a.^g (no active, meaning inhibition rate was <5.0% at 25 μM) | – | –
COc1cc(O)c(C(=O)/C=C/c2ccc(O)cc2)c(OC)c1OC [Compound 8, (E)-1-(6-hydroxy-2,3,4-trimethoxyphenyl)-3-(4-hydroxyphenyl)-2-propen-1-one] | > 500 | – | > 500 | > 500 | – | – | 5.4 ± 0.01 μM of Trolox equivalent/μM of compounds | – | 33.2 ± 0.01 | – | – | 23.1 ± 0.01 | 22.9 | – | – | 5.4 | –
COc1cc(O)c(C(=O)/C=C/c2ccc(O)cc2)c(OC)c1O [Compound 16, 3′,4,6′-Trihydroxy-2′,4′-dimethoxy-chalcone] | > 500 | – | > 500 | > 500 | – | – | 7.8 ± 0.01 μM of Trolox equivalent/μM of compounds | 15.4 ± 0.16 | 38.1 ± 0.01 | – | – | 27.7 ± 0.02 | – | – | – | 7.8 | –
COc1cc(/C=C/C(=O)CC(=O)/C=C/c2ccc(O)c(OC)c2)ccc1O [Curcumin, reference compound] | – | – | – | – | – | – | – | – | 76.5 ± 0.02 | – | – | 47.3 ± 0.01 | – | – | – | – | 56.5 ± 0.21
